In patent US20200017496A1 (priority 2017, published 2020):
Read-outs that look alike come from different tables or passages of the source.

System: Klebsiella pneumoniae (KPN) isolates
Assay: MIC of compounds alone and combined with antibacterials, broth microdilution (CLSI)
Format: cell-based
Settings: Klebsiella pneumoniae, read-out: MIC
How it was run: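 Compound MIC, and antibacterial MIC at each fixed compound level, taken by visual inspection as lowest concentration stopping growth. Inoculum: log-phase bacteria, final 5·10^5 CFU/mL, cation-adjusted Mueller-Hinton broth; 16-20 h, 35° C, ambient air.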

Compound: C=CC1=C(C(=O)O)N2C(=O)[C@@H](NC(=O)/C(=N\OCC(=O)O)c3csc(N)n3)[C@H]2SC1 [FIX, Cefixime]
- MIC (strain KPN 190128 (TEM-1, SHV-32, CTX-M-15, OXA-1), CLA @ 4 μg/ml+ ATB): 0.5 µg/mL
- MIC (strain KPN 190270 (TEM-1, SHV-76, CTX-M-15, OXA-1), ATB alone): > 128 µg/mL
- MIC (strain KPN 190270 (TEM-1, SHV-76, CTX-M-15, OXA-1), CLA @ 4 μg/ml+ ATB): 1 µg/mL
- MIC (strain KPN 190425 (TEM-1, SHV-1, CTX-M-15, OXA-1), ATB alone): > 128 µg/mL
- MIC (strain KPN 190425 (TEM-1, SHV-1, CTX-M-15, OXA-1), CLA @ 4 μg/ml+ ATB): ≤ 0.25 µg/mL
- MIC (strain KPN 190551 (TEM-1, SHV-1, CTX-M-15, OXA-1), ATB alone): > 128 µg/mL
- MIC (strain KPN 190551 (TEM-1, SHV-1, CTX-M-15, OXA-1), CLA @ 4 μg/ml+ ATB): ≤ 0.25 µg/mL
- MIC (strain KPN 200047 (TEM-1, SHV-32, CTX-M-15, OXA-1), ATB alone): > 128 µg/mL
- MIC (strain KPN 200047 (TEM-1, SHV-32, CTX-M-15, OXA-1), CLA @ 4 μg/ml+ ATB): ≤ 0.25 µg/mL
- MIC (strain KPN 200327 (TEM-1, SHV-1, CTX-M-15, OXA-1), ATB alone): 64 µg/mL
- MIC (strain KPN 200327 (TEM-1, SHV-1, CTX-M-15, OXA-1), CLA @ 4 μg/ml+ ATB): ≤ 0.25 µg/mL
- MIC (strain KPN 260251 (TEM-1, SHV-11, SHV-12, CTX-M-15, KPC-2), ATB alone): > 128 µg/mL
- MIC (strain KPN 260251 (TEM-1, SHV-11, SHV-12, CTX-M-15, KPC-2), CLA @ 4 μg/ml+ ATB): 32 µg/mL
- MIC (strain KPN 260252 (TEM-1, SHV-11, KPC-3), ATB alone): > 128 µg/mL
- MIC (strain KPN 260252 (TEM-1, SHV-11, KPC-3), CLA @ 4 μg/ml+ ATB): 128 µg/mL
- MIC (strain KPN 260376 (SHV-1, SHV-49, OXA-1), ATB alone): > 128 µg/mL
- MIC (strain KPN 260376 (SHV-1, SHV-49, OXA-1), CLA @ 4 μg/ml+ ATB): ≤ 0.25 µg/mL
- MIC (strain KPN 270077 (TEM-1, SHV-1, CTX-M-15), ATB alone): > 128 µg/mL
- MIC (strain KPN 270077 (TEM-1, SHV-1, CTX-M-15), CLA @ 4 μg/ml+ ATB): 0.5 µg/mL
- MIC (strain KPN 700603 (SHV-18, OXA-2), ATB alone): 16 µg/mL
- MIC (strain KPN 700603 (SHV-18, OXA-2), CLA @ 4 μg/ml+ ATB): 0.5 µg/mL
- MIC (strain KPN ARA (TEM-1, SHV-11, CTX-M-15, OXA-1, OXA-48), ATB alone): > 128 µg/mL
- MIC (strain KPN ARA (TEM-1, SHV-11, CTX-M-15, OXA-1, OXA-48), CLA @ 4 μg/ml+ ATB): 128 µg/mL
- MIC (strain KPN LIB (SHV-11, OXA-48), ATB alone): ≤ 0.25 µg/mL
- MIC (strain KPN LIB (SHV-11, OXA-48), CLA @ 4 μg/ml+ ATB): ≤ 0.25 µg/mL
- MIC (strain KPN UFR22_O (TEM-1, SHV-1, OXA-48), ATB alone): ≤ 0.25 µg/mL
- MIC (strain KPN UFR22_O (TEM-1, SHV-1, OXA-48), CLA @ 4 μg/ml+ ATB): ≤ 0.25 µg/mL
- MIC (strain KPN UFR23 (TEM-1, SHV-1, OXA-48), ATB alone): ≤ 0.25 µg/mL
- MIC (strain KPN UFR23 (TEM-1, SHV-1, OXA-48), CLA @ 4 μg/ml+ ATB): ≤ 0.25 µg/mL
- MIC (strain KPN UFR24 (TEM-1, SHV-2, SHV-11, OXA-1, OXA-48, OXA-47), ATB alone): > 128 µg/mL
- MIC (strain KPN UFR24 (TEM-1, SHV-2, SHV-11, OXA-1, OXA-48, OXA-47), CLA @ 4 μg/ml+ ATB): 64 µg/mL
- MIC (strain KPN UFR25 (TEM-1, SHV-11, CTX-M-15, OXA-162), ATB alone): > 128 µg/mL
- MIC (strain KPN UFR25 (TEM-1, SHV-11, CTX-M-15, OXA-162), CLA @ 4 μg/ml+ ATB): 64 µg/mL
- MIC (strain KPN UFR27 (TEM-1, SHV-28, CTX-M-15, OXA-204), ATB alone): > 128 µg/mL
- MIC (strain KPN UFR27 (TEM-1, SHV-28, CTX-M-15, OXA-204), CLA @ 4 μg/ml+ ATB): > 128 µg/mL
- MIC (strain KPN UFR28 (TEM-1, SHV-1, CTX-M-15, OXA-1, OXA-232), ATB alone): 256 µg/mL
- MIC (strain KPN UFR28 (TEM-1, SHV-1, CTX-M-15, OXA-1, OXA-232), CLA @ 4 μg/ml+ ATB): 64 µg/mL
- MIC (strain KPN UFR65 (TEM-1, SHV-11, KPC-2), ATB alone): > 128 µg/mL
- MIC (strain KPN UFR65 (TEM-1, SHV-11, KPC-2), CLA @ 4 μg/ml+ ATB): 128 µg/mL
- MIC (strain KPN UFR66 (TEM-1, SHV-11, CTX-M-15, KPC-2), ATB alone): 512 µg/mL
- MIC (strain KPN UFR66 (TEM-1, SHV-11, CTX-M-15, KPC-2), CLA @ 4 μg/ml+ ATB): 64 µg/mL
- MIC (strain KPN UFR67 (TEM-1, SHV-11, KPC-3), ATB alone): > 128 µg/mL
- MIC (strain KPN UFR67 (TEM-1, SHV-11, KPC-3), CLA @ 4 μg/ml+ ATB): 128 µg/mL
- MIC (strain KPN UFR68 (TEM-1, SHV-11, CTX-M-15, KPC-3), ATB alone): > 128 µg/mL
- MIC (strain KPN UFR68 (TEM-1, SHV-11, CTX-M-15, KPC-3), CLA @ 4 μg/ml+ ATB): 64 µg/mL
- MIC (strain KPN UFR76 (TEM-155, SHV-11, ACT-1, OXA-2), ATB alone): > 128 µg/mL
- MIC (strain KPN UFR76 (TEM-155, SHV-11, ACT-1, OXA-2), CLA @ 4 μg/ml+ ATB): > 128 µg/mL
- MIC (strain KPN UFR77 (CMY-2), ATB alone): 128 µg/mL
- MIC (strain KPN UFR77 (CMY-2), CLA @ 4 μg/ml+ ATB): 128 µg/mL
- MIC (strain KPN UFR78 (TEM-1, SHV-1, CTX-M-15, CMY-2, OXA-1, OXA-48), ATB alone): > 128 µg/mL
- MIC (strain KPN UFR78 (TEM-1, SHV-1, CTX-M-15, CMY-2, OXA-1, OXA-48), CLA @ 4 μg/ml+ ATB): > 128 µg/mL
- MIC (strain KPN UFR79 (DHA-1, OXA-1), ATB alone): > 128 µg/mL
- MIC (strain KPN UFR79 (DHA-1, OXA-1), CLA @ 4 μg/ml+ ATB): > 128 µg/mL
- MIC (strain KPN UFR80 (SHV-11, DHA-1, OXA-1), ATB alone): ≤ 0.25 µg/mL
- MIC (strain KPN UFR80 (SHV-11, DHA-1, OXA-1), CLA @ 4 μg/ml+ ATB): 0.5 µg/mL
- MIC (strain KPN UFR81 (TEM-1, SHV-1, DHA-1, OXA-48), ATB alone): > 128 µg/mL
- MIC (strain KPN UFR81 (TEM-1, SHV-1, DHA-1, OXA-48), CLA @ 4 μg/ml+ ATB): > 128 µg/mL
- MIC (strain KPN UFR215 (SHV-27, CTX-M-15), ATB alone): > 128 µg/mL
- MIC (strain KPN UFR215 (SHV-27, CTX-M-15), CLA @ 4 μg/ml+ ATB): 1 µg/mL
- MIC (strain KPN UFR216 (SHV-28, CTX-M-15), ATB alone): > 128 µg/mL
- MIC (strain KPN UFR216 (SHV-28, CTX-M-15), CLA @ 4 μg/ml+ ATB): ≤ 0.25 µg/mL
- MIC (strain KPN UFR217 (TEM-1, SHV-1, CTX-M-15), ATB alone): > 128 µg/mL
- MIC (strain KPN UFR217 (TEM-1, SHV-1, CTX-M-15), CLA @ 4 μg/ml+ ATB): ≤ 0.25 µg/mL
- MIC (strain KPN UFR219 (SHV-12, CTX-M-15), ATB alone): > 128 µg/mL
- MIC (strain KPN UFR219 (SHV-12, CTX-M-15), CLA @ 4 μg/ml+ ATB): 0.5 µg/mL
- MIC (strain KPN UFR220 (TEM-1, SHV-12, DHA-1), ATB alone): > 128 µg/mL
- MIC (strain KPN UFR220 (TEM-1, SHV-12, DHA-1), CLA @ 4 μg/ml+ ATB): > 128 µg/mL
- MIC (strain KPN UFR221 (TEM-1, SHV-11, CTX-M-14, DHA-1), ATB alone): 64 µg/mL
- MIC (strain KPN UFR221 (TEM-1, SHV-11, CTX-M-14, DHA-1), CLA @ 4 μg/ml+ ATB): 128 µg/mL
- MIC (strain KPN UFR222 (DHA-2), ATB alone): > 128 µg/mL
- MIC (strain KPN UFR222 (DHA-2), CLA @ 4 μg/ml+ ATB): > 128 µg/mL
- MIC (strain KPN UFR227O (TEM-x, SHV-x, CTX-M-x), ATB alone): > 128 µg/mL
- MIC (strain KPN UFR227O (TEM-x, SHV-x, CTX-M-x), CLA @ 4 μg/ml+ ATB): > 128 µg/mL
